From paper PMC12261321, “Inhibitors of the Bacterioferritin Ferredoxin Complex Dysregulate Iron Homeostasis and Kill and Biofilm-Embedded Cells” (ACS Infectious Diseases, 2025) come the findings set out here.

Molecules are shown by their SMILES.

The data set relates to P. aeruginosa PAO1. Put plainly: Compound intracellular accumulation in P. aeruginosa PAO1. The format is cell-based. The settings on record: cells treated with 30 µM compound. Here is the method: Determination of Compound Intracellular Accumulation. These experiments were carri ed out as reported previously,16 with modifications. Starter cultures o f P. aeruginosa PAO1 or A. baumannii 5075 were centrifuged for 10 min at 3148 x g and 4 °C, resuspended in 5 mL of fresh LB, diluted to OD 600 = 0.03 in fresh LB media (250 mL), and then cultured at 35 °C and 220 rpm for 4 h. Th e resultant cul ture was diluted to OD600 = 0.4 in 250 mL LB and centrifuged at 4 °C and 3470 x g for 10 min. The cell pellet was resuspended in 20 mL of PBS and transfer red to a 50 mL conical tube, where it was centrifuged at 4 °C and 3148 x g for 20 min. The cell pellet was resuspended in 15 mL of PBS supplemented with 0.05% (w/v) HPMC and the suspension was divided equally into two new conical tubes. One of th e tubes was treated with 150 µL of DMSO (control), while the second tube was treated with 150 µL of compound in DMSO solution to produce a compound final concentration of 30 µM or 15 µM. The resultant mixtures were incubated at 37 °C and 220 rpm for 15 min, placed on ice for 1 min, and then centrifuged at 3148 x g rpm and 4 °C for 10 min. The cell pellet was resuspended in 7.5 mL of ice -cold PBS and vortexed (10 s, five t imes). 200 µL of the cell suspension was used to plate and enumerate viable cells, and 800 µL of the suspension was lay ered onto 700 µL of chilled silicon oil contained in 1.5 mL Eppendo rf tubes and then centrifuged at 4 °C ( 900 x g) for 10 min, then again at 16,200 x g for 5 min to allow pass ag e of the cell suspension through the silicon oil layer. The aqueous and oil layers were removed, and the cell pellet was washed twice in PBS (800 μ L), each time transferring the cell suspension to a new Eppendorf tube and then centrifuging at 16,200 x g. The cell pellet was lysed in 800 µL methanol by vortexing followed by 10 min incubationat room temperatur e. The lysate suspension was pelleted, the supernatant was transferred to a new Eppendorf tube and then placed into a vacuum concentrator (Eppendorf 5301 Vacufuge) to evaporate the methanol (4 h). The dried […]
cell lysate was resuspend ed in 600 µL of DMSO and centrifuged at 16,200 x g rpm for 5 min at room temperature.
The clarified supernatant was titrated with small volumes of 250 µM compound stock, measuring the fluorescen ce after the addition of each aliquot with the aid of a Cary Eclipse Fluorescence Spectrometer (Agilent). The compound concentration was determined utilizing the standard addition method,17 and compound accumulation is reported as nmol compound/1012 CFU/mL. […]
Eclipse) fluorescen ce sp ectrophotometer. The flu orescen ce intensity of th e treated sample (FI)Tr and that of the untreated control (FI)Un was normalized to the corresponding OD600 and the ratio (FI/OD600)Tr / (F I/ OD600)Un is […]
The determination for each of the compounds was carri ed out in 5 biological replicates.
Determination of Siderophores Secreted by A. baumannii . The chromo azurol S (CAS) solution was prepared as previously reported18 with some modifications. The blue dye solution (0.6 g/L CAS ( ACROS Organics), 100 μM FeCl3·6H2O, and 0.73 g/L hexadecyltrimethylammonium bromide (HDTMA, ACROS Organics) was autoclaved and stored in the dark. The MM9-PIPES buffer solution (3 g/L KH2PO4, 5 g/L NaCl, 10 g/L NH4C l, 32.24 g/L piperazine -1,4-bis-2- ethanesulfonic acid (PIPES , Sigma Aldrich), pH 6.75) was sterilized using a 0.22 µm syringe filter (VWR). Prior to every experimen t, blue dye solution (0.5 mL) was mixed with 4.5 mL of MM9-PIPES solution. An overnight culture of A. baumannii 5075 was diluted to OD600 = 0.0001 with modified M63 media (no citric acid) supplemented with 4 μ M Fe and transferred to a 96-well plate, wh ere it was cul tured for 20
In the case of `O=C1NC(=O)c2c(NCc3ccc(Br)cc3O)cccc21` [EB-5-61], the “Intracell. Accum, P. aeruginosa PAO1” value amounted to 197 ± 17 nmol/1012 CFU.

With `Cc1ccc(CNc2cccc3c2C(=O)NC3=O)c(O)c1` [EB-5-69], the “Intracell. Accum, P. aeruginosa PAO1” value amounted to 52 ± 2 nmol/1012 CFU.

For `O=C1NC(=O)c2c(NCc3cccc(Br)c3O)cccc21` [EB-5-73], the “Intracell. Accum, P. aeruginosa PAO1” value is given as 34 ± 9 nmol/1012 CFU.

Turning to `O=C1NC(=O)c2c(NCc3cccc(F)c3O)cccc21` [EB-5-80], the “Intracell. Accum, P. aeruginosa PAO1” value is 11 ± 3 nmol/1012 CFU.

With `O=C1NC(=O)c2c(NCc3cc(F)ccc3O)cccc21` [JAG-5-7], the “Intracell. Accum, P. aeruginosa PAO1” value stood at 28 ± 10 nmol/1012 CFU.

For `O=C1NC(=O)c2c(NCc3cc(Cl)ccc3O)cccc21` [KM-5-25, 4-((5-Chloro-2-hydroxybenzyl)amino)isoindoline-1,3-dione], the “Intracell. Accum, P. aeruginosa PAO1” value was determined as 270 ± 48 nmol/1012 CFU.

In the case of `O=C1NC(=O)c2c(NCc3c(O)cccc3Cl)cccc21` [KM-5-29], the “Intracell. Accum, P. aeruginosa PAO1” value worked out at 351 ± 25 nmol/1012 CFU.

For `O=C1NC(=O)c2c(NCc3cccc(Cl)c3O)cccc21` [KM-5-30], the “Intracell. Accum, P. aeruginosa PAO1” value was determined as 42 ± 1 nmol/1012 CFU.

In the case of `O=C1NC(=O)c2c(NCc3cc(Br)ccc3O)cccc21` [KM-5-35, 4-((5-Bromo-2-hydroxybenzyl)amino)isoindoline-1,3-dione], the “Intracell. Accum, P. aeruginosa PAO1” value amounted to 360 ± 22 nmol/1012 CFU.

Regarding `O=C1NC(=O)c2c(NCc3cc(F)ccc3O)ccc(Br)c21` [SB-16-67], the “Intracell. Accum, P. aeruginosa PAO1” value was found to be 187 ± 59 nmol/1012 CFU.

Turning to `O=C1NC(=O)c2c(NCc3cc(Br)cc(F)c3O)cccc21` [SB-16-118], the “Intracell. Accum, P. aeruginosa PAO1” value is 126 ± 40 nmol/1012 CFU.

For the compound `O=C1NC(=O)c2c(NCc3cc(Br)c(O)cc3O)cccc21` [SB-16-137], the “Intracell. Accum, P. aeruginosa PAO1” value is 33 ± 1 nmol/1012 CFU.
